Measured values from ChEMBL document CHEMBL5352392, “Design, synthesis, and biological evaluation of novel dual inhibitors of heat shock protein 90/mammalian target of rapamycin (Hsp90/mTOR) against bladder cancer cells” (Eur J Med Chem, 2022).
Activity calls are given as the source filed them. The rule behind the calls is not given here.

What was measured:
[1] = target: T1, Serine/threonine-protein kinase mTOR (Homo sapiens, UniProt P42345); test: Inhibition of mTOR (unknown origin) at 100 nM by kinase profiling assay relative to control
[2] = system: J82; test: Antiproliferative activity against human J82 cells assessed as inhibition of cell proliferation at 1 uM by CCK8 assay relative to control; assay type: functional
[3] = system: T-24; test: Antiproliferative activity against human T24 cells assessed as inhibition of cell proliferation at 1 uM by CCK8 assay relative to control; assay type: functional
[4] = system: SW780; test: Antiproliferative activity against human SW780 cells assessed as inhibition of cell proliferation at 1 uM by CCK8 assay relative to control; assay type: functional
[5] = target: T2, Heat shock protein HSP90 (Homo sapiens, UniProt P07900+P08238); test: Inhibition of Hsp90 (unknown origin) by TR-FRET assay; assay type: protein assay
[6] = target: T1, Serine/threonine-protein kinase mTOR; test: Inhibition of mTOR (unknown origin) by kinase profiling assay
[7] = target: Phosphatidylinositol 4,5-bisphosphate 3-kinase catalytic subunit alpha isoform (Homo sapiens, UniProt P42336); test: Inhibition of PI3Kalpha (unknown origin) by kinase profiling assay
Sequence of Phosphatidylinositol 4,5-bisphosphate 3-kinase catalytic subunit alpha isoform (P42336 whole entry, canonical isoform): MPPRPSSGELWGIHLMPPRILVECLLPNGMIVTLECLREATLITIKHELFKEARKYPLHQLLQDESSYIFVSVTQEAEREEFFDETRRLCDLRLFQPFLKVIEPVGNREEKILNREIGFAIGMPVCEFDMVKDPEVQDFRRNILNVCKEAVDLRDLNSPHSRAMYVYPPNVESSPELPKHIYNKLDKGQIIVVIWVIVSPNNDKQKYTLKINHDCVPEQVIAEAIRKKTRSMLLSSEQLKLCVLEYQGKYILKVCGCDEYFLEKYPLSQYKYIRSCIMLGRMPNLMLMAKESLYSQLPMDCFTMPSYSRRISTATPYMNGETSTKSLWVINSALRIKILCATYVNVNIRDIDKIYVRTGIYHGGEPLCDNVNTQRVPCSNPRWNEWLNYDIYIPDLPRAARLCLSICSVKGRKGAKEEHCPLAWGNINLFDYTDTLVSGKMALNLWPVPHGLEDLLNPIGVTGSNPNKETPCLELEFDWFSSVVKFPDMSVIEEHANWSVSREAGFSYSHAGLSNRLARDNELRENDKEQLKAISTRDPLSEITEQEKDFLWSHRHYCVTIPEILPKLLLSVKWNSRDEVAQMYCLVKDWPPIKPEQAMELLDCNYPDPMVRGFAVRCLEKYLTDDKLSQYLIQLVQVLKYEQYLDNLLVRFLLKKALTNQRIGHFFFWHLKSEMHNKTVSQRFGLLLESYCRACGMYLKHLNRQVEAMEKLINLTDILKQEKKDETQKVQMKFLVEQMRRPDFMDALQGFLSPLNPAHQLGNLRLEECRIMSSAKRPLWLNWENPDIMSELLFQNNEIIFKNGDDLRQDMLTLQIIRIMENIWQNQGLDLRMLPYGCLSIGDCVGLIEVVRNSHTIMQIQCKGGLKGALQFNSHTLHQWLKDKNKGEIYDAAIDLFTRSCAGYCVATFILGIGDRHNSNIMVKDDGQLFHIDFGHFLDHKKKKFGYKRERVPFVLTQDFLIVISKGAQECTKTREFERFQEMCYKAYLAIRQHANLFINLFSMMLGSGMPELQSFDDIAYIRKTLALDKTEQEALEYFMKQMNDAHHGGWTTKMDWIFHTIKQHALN

[8] = system: J82; test: Antiproliferative activity against human J82 cells assessed as inhibition of cell proliferation by CCK8 assay; assay type: functional, cell-based
[9] = system: T-24; test: Antiproliferative activity against human T24 cells assessed as inhibition of cell proliferation by CCK8 assay; assay type: functional, cell-based
[10] = system: SW780; test: Antiproliferative activity against human SW780 cells assessed as inhibition of cell proliferation by CCK8 assay; assay type: functional, cell-based
[11] = target: T2, Heat shock protein HSP90; conditions: dose 100.0 nM
Description: Inhibition of Hsp90 (unknown origin) at 100 nM by TR-FRET assay relative to control

[12] = system: SW780; test: Induction of apoptosis in human SW780 cells assessed as viable cells at 0.2 uM incubated for 24 hrs by Annexin V-FITC/PI staining based flow cytometry (reference value: 92.3 %); assay type: functional; conditions: read-out: Activity
[13] = system: SW780; test: Induction of apoptosis in human SW780 cells assessed as early apoptotic cells at 0.2 uM incubated for 24 hrs by Annexin V-FITC/PI staining based flow cytometry (reference value: 1.43 %); assay type: functional
[14] = system: SW780; test: Induction of apoptosis in human SW780 cells assessed as late apoptotic cells at 0.2 uM incubated for 24 hrs by Annexin V-FITC/PI staining based flow cytometry (reference value: 2.30 %); assay type: functional
[15] = system: SW780; test: Induction of apoptosis in human SW780 cells assessed as necrotic cells at 0.2 uM incubated for 24 hrs by Annexin V-FITC/PI staining based flow cytometry (reference value: 92.3 %); assay type: functional
[16] = system: SW780; test: Induction of apoptosis in human SW780 cells assessed as viable cells at 0.5 uM incubated for 24 hrs by Annexin V-FITC/PI staining based flow cytometry (reference value: 92.3 %); assay type: functional; conditions: read-out: Activity
[17] = system: SW780; test: Induction of apoptosis in human SW780 cells assessed as early apoptotic cells at 0.5 uM incubated for 24 hrs by Annexin V-FITC/PI staining based flow cytometry (reference value: 1.43 %); assay type: functional
[18] = system: SW780; test: Induction of apoptosis in human SW780 cells assessed as late apoptotic cells at 0.5 uM incubated for 24 hrs by Annexin V-FITC/PI staining based flow cytometry (reference value: 2.30 %); assay type: functional
[19] = system: SW780; test: Induction of apoptosis in human SW780 cells assessed as necrotic cells at 0.5 uM incubated for 24 hrs by Annexin V-FITC/PI staining based flow cytometry (reference value: 92.3 %); assay type: functional
[20] = system: SW780; test: Induction of autophagy in human SW780 cells assessed as formation of autophagic vacuoles in cytoplasm by TEM analysis; assay type: functional, cell-based
[21] = system: SW780; test: Induction of autophagy in human SW780 cells transfected with GFP-LC3 assessed as formation of autophagosomes at 0.5 uM incubated for 24 hrs by laser scanning confocal microscopic analysis; assay type: functional, cell-based
[22] = system: SW780; test: Downregulation of CDK4 level in human SW780 cells at 0.2 to 0.5 uM by Western blot analysis; assay type: functional, cell-based; conditions: dose 0.2-0.5 µM
[23] = system: SW780; test: Downregulation of c-Raf level in human SW780 cells at 0.2 to 0.5 uM by Western blot analysis; assay type: functional, cell-based; conditions: dose 0.2-0.5 µM
[24] = system: SW780; test: Downregulation of CDC2 level in human SW780 cells at 0.2 to 0.5 uM by Western blot analysis; assay type: functional, cell-based; conditions: dose 0.2-0.5 µM
[25] = system: SW780; test: Upregulation of Hsp70 level in human SW780 cells by Western blot analysis; assay type: functional, cell-based; conditions: dose 0.2-0.5 µM
[26] = system: SW780; test: Downregulation of phosphorylated mTOR level in human SW780 cells at 0.2 to 0.5 uM by Western blot analysis; assay type: functional, cell-based; conditions: dose 0.2-0.5 µM
[27] = system: SW780; test: Downregulation of phosphorylated AKT level in human SW780 cells at 0.2 to 0.5 uM by Western blot analysis; assay type: functional, cell-based; conditions: dose 0.2-0.5 µM
[28] = system: SW780; test: Upregulation of LC3-II level in human SW780 cells at 0.2 to 0.5 uM by Western blot analysis; assay type: functional, cell-based; conditions: dose 0.2-0.5 µM
[29] = system: SW780; test: Downregulation of p62 level in human SW780 cells at 0.2 to 0.5 uM by Western blot analysis; assay type: functional, cell-based; conditions: dose 0.2-0.5 µM
[30] = system: SW780; test: Upregulation of cytochrome C level in human SW780 cells at 0.2 to 0.5 uM by Western blot analysis; assay type: functional, cell-based; conditions: dose 0.2-0.5 µM
[31] = system: SW780; test: Upregulation of cleaved caspase-3 level in human SW780 cells at 0.2 to 0.5 uM by Western blot analysis; assay type: functional, cell-based; conditions: dose 0.2-0.5 µM
[32] = system: SW780; test: Antiproliferative activity against human SW780 cells assessed as cell survival at 0.5 uM measured after 72 hrs by CCK8 assay relative to control; assay type: functional; conditions: read-out: Activity
[33] = system: SW780; test: Upregulation of intracellular cathepsin B activity in human SW780 cells; assay type: functional, cell-based
[34] = system: SW780; test: Upregulation of intracellular cathepsin B activity in human SW780 cells in presence of 3-MA; assay type: functional, cell-based
[35] = system: SW780; test: Upregulation of intracellular cathepsin B activity in human SW780 cells in presence of Baf-A1; assay type: functional, cell-based
[36] = system: SW780; test: Induction of autophagy in human SW780 cells transfected with GFP-LC3 assessed as formation of autophagosomes incubated for 6 hrs in presence of 3-MA by laser scanning confocal microscopic analysis; assay type: functional, cell-based
[37] = system: SW780; test: Induction of autophagy in human SW780 cells transfected with GFP-LC3 assessed as formation of autophagosomes incubated for 6 hrs in presence of Baf-A1 by laser scanning confocal microscopic analysis; assay type: functional, cell-based
[38] = system: J82; test: Antitumor activity against human J82 cells xenografted in nude Balb/c mouse assessed as tumor growth inhibition at 30 mg/kg, po administered everyday for 17 days; assay type: functional, organism-based; conditions: time 17.0 day
[39] = Toxicity in nude Balb/c mouse xenografted with human J82 cells assessed as body weight reduction at 30 mg/kg, po administered everyday for 17 days; assay type: organism-based; conditions: in vivo, 408 h, time 17 day
[40] = system: J82; test: Antitumor activity against human J82 cells xenografted in nude Balb/c mouse assessed as […] at 30 mg/kg, po administered everyday for 17 days by IHC analysis; assay type: functional, organism-based; conditions: time 17.0 day
[41] = system: J82; test: Antitumor activity against human J82 cells xenografted in nude Balb/c mouse assessed as decrease in mTOR phosphorylation level at 30 mg/kg, po administered everyday for 17 days by IHC analysis; assay type: functional, organism-based; conditions: time 17.0 day
[42] = system: J82; test: Antitumor activity against human J82 cells xenografted in nude Balb/c mouse assessed as increase in LC3-II level at 30 mg/kg, po administered everyday for 17 days by IHC analysis; assay type: functional, organism-based; conditions: time 17.0 day

## CC(C)c1cc(C(=O)N2CCc3c(sc4nc(-c5ccc(NC(=O)Nc6cccc(C(F)(F)F)c6)cc5)nc(N5CCOCC5)c34)C2)c(O)cc1O
[1]
  inhibition: 66.3%
[2]
  inhibition at 1 µM: 69.1%
[3]
  inhibition at 1 µM: 82.5%
[4]
  inhibition at 1 µM: 65.6%
[5]
  IC50: 126 nM
[6]
  IC50: 218 nM
[7]
  IC50: 2450 nM
[8]
  IC50: 2760 nM
[9]
  IC50: 940 nM
[10]
  IC50: 660 nM
[11]
  inhibition: 73.8%

## CC(C)c1cc(C(=O)N2CCc3c(sc4nc(N5CCOC[C@@H]5C)nc(N5CCOC[C@@H]5C)c34)C2)c(O)cc1O
[1]
  inhibition: 75.4%
[2]
  inhibition at 1 µM: 52.8%
[3]
  inhibition at 1 µM: 55.4%
[4]
  inhibition at 1 µM: 79.9%
[5]
  IC50: 476 nM
[6]
  IC50: 73 nM
[7]
  IC50: > 10000 nM
[8]
  IC50: 780 nM
[9]
  IC50: 1680 nM
[10]
  IC50: 370 nM
[11]
  inhibition: 56.6%

## CC(C)c1cc(C(=O)N2CCc3c(sc4nc(-c5ccc(NC(=O)Nc6cccc(Cl)c6)cc5)nc(N5CCOCC5)c34)C2)c(O)cc1O
[1]
  inhibition: 75.2%
[2]
  inhibition at 1 µM: 84.7%
[3]
  inhibition at 1 µM: 65%
[4]
  inhibition at 1 µM: 89.8%
[5]
  IC50: 147 nM
[6]
  IC50: 82 nM
[7]
  IC50: 3600 nM
[8]
  IC50: 760 nM
[9]
  IC50: 1720 nM
[10]
  IC50: 740 nM
[11]
  inhibition: 72.7%

## CC(C)c1cc(C(=O)N2CCc3c(sc4nc(-c5ccc(NC(=O)Nc6cc(Cl)cc(Cl)c6)cc5)nc(N5CCOCC5)c34)C2)c(O)cc1O
[1]
  inhibition: 73.5%
[2]
  inhibition at 1 µM: 69.1%
[3]
  inhibition at 1 µM: 67%
[4]
  inhibition at 1 µM: 77.8%
[5]
  IC50: 365 nM
[6]
  IC50: 106 nM
[7]
  IC50: 5630 nM
[8]
  IC50: 1590 nM
[9]
  IC50: 550 nM
[10]
  IC50: 690 nM
[11]
  inhibition: 68.3%

## CC(C)c1cc(C(=O)N2CCc3c(sc4nc(-c5ccc(NC(=O)Nc6ccc(F)c(Cl)c6)cc5)nc(N5CCOCC5)c34)C2)c(O)cc1O
[1]
  inhibition: 83.1%
[2]
  inhibition at 1 µM: 79.3%
[3]
  inhibition at 1 µM: 91.7%
[4]
  inhibition at 1 µM: 93.8%
[12]
  viability at 0.2 µM: 87.6%
[13]
  Activity: 4.77%
[14]
  Activity: 3.29%
[15]
  Activity: 4.38%
[16]
  viability at 0.5 µM: 83.5%
[17]
  Activity: 9.23%
[18]
  Activity: 5.01%
[19]
  Activity: 2.31%
[20]
  Activity: Active
[21]
  Activity: Active
[22]
  Activity: Active
[23]
  Activity: Active
[24]
  Activity: Active
[25]
  Activity: Dose-Dependent Effect
[26]
  Activity: Active
[27]
  Activity: Active
[28]
  Activity: Active
[29]
  Activity: Active
[30]
  Activity: Active
[31]
  Activity: Active
[32]
  viability at 0.5 µM: < 40%
[33]
  Activity: Active
[34]
  Activity: inactive
[35]
  Activity: inactive
[36]
  Activity: inactive
[37]
  Activity: Active
[38]
  inhibition: Active
[39]
  Activity: Non-Toxic
[40]
  Activity: Active
[41]
  Activity: Active
[42]
  Activity: Active
[5]
  IC50: 69 nM
[6]
  IC50: 29 nM
[7]
  IC50: 4980 nM
[8]
  IC50: 360 nM
[9]
  IC50: 410 nM
[10]
  IC50: 160 nM
[11]
  inhibition: 83.3%
